Results published in US11713309B2, “Solid forms of Cerdulatinib” (Alexion Pharmaceuticals, Inc., priority 2018, dated 2023).
Where a name gives a salt, the structure may show the parent alone.

Legend:
Format in all cases: physicochemical
[1] = Low humidity testing
Protocol: Low Humidity testing: Compound I HCl salt Form I was placed under N2 and checked by in situ XRPD at 20 min and 60 minutes. […] HCl salt Form I was placed under N2 bleeding for ˜60 min and TGA and DSC were measured. […] (peak temperature).

[2] = Storage under vacuum at 40° C. and at 60° C.; details: 4 days, initial HPLC purity 99.3%
Protocol: Storage under vacuum at 40° C. and at 60° C.: Compound I HCl Form I was stored under vacuum at 40° C. and at 60° C. Initial HPLC purity was 99.3%.

[3] = XRPD form evaluation of materials recovered after solubility analysis; details: aqueous solubility analysis, second scale up material
Protocol: The solubility of the salts/co-crystals of Compound I prepared from the second scale up process was analyzed. The materials recovered after the solubility analysis were evaluated by XRPD to observe any form changes.

[4] = Gravimetric vapor sorption (GVS) hygroscopicity; details: for GVS weight gain / total weight uptake: at/after about 70% RH, 25° C.
Protocol: Sorption isotherms were obtained using a Hiden Isochema moisture sorption analyser (model IGAsorp), controlled by IGAsorp Systems Software v6.50.48. The sample was maintained at a constant temperature (25° C.) by the instrument controls. The humidity was controlled by mixing streams of dry and wet nitrogen, with a total flow of 250 mL·min^−1. The instrument was verified for relative humidity content by measuring three calibrated Rotronic salt solutions (10-50-88%). The weight change of the sample was monitored as a function of humidity by a microbalance (accuracy+/−0.005 mg). A defined amount of sample was placed in a tared mesh stainless steel basket under ambient conditions. A full experimental cycle consisted of two scans (sorption and desorption) at a constant temperature (25° C.) and 10% RH intervals over a 10-90% range (90 minutes for each humidity level).
The hygroscopicity of the esylate, mesylate, HCl, and sulfate salts/co-crystals of Compound I formed via the first scale up process was analyzed. All hygroscopicity experiments covered a wide range of humidity (0 to about 90% relative humidity) and were performed at about 25° C. to assess behavior.

[5] = Slurry maturations in various solvents (form reproducibility/stability); details: acetonitrile, EtOAc, ethanol, IPA; cycling about 25 to about 50° C., about 4 days
Protocol: A series of slurry maturations in various solvents was performed to further analyze the form reproducibility/stability of the esylate, mesylate, HCl, and sulfate salts/co-crystals of Compound I. The solvents chosen were acetonitrile, EtOAc, ethanol, and IPA. The input materials were the salts/co-crystals of Compound I formed via the second scale up process. About 20 mg of each sample was charged to reflux tubes and heated with temperature cycling between about 25 and about 50° C. for about 4 days. The resulting materials were isolated by filtration and dried in vacuo at about 40° C. The results of the slurry maturations for the resulting HCl and mesylate salts/co-crystals are presented in subsections (a)-(d) below. The data for the resulting esylate and sulfate salts/co-crystals of Compound have been omitted due to notable form variation.

[6] = Thermodynamic pH-solubility profile; details: 7 days of shaking, about 37° C. water bath
Excerpt: A thermodynamic pH-solubility profile of Compound I HCl Form I in various buffer or non-buffer solutions is further provided in FIG. 61. FIG. 61 additionally includes the thermodynamic pH-solubility profile of Compound I free base. It is of note that no data is shown in the profile of Compound I free base below a pH of about 2.0, as Compound I free base converted to Compound I HCl Form I below a pH of about 2.0. Similarly, no data is shown in the profile of Compound I HCl Form I above a pH of about 3.0, as Compound I HCl Form I converted to Compound I free base above a pH of about 3.0.

[7] = Approximate kinetic solubility in pharmaceutical co-solvents; details: aqueous with cosolvent or surfactant or cyclodextrin, thermodynamic from solid, no-pH adjustment
Excerpt: A summary of the approximate kinetic solubility of Compound I HCl Form I in organic solvents, simulated biological fluids, and common pharmaceutical co-solvents is provided in Tables 8-10, respectively.

[8] = 2% Captisol in aqueous solution
[9] = 5% Captisol in aqueous solution
[10] = 5% Pharmasolve in aqueous solution
[11] = 5% Poloxamer F68 in aqueous solution
[12] = 10% Captisol in aqueous solution
[13] = 10% HP-β-CD in aqueous solution
[14] = 10% Labrasol in aqueous solution
[15] = 10% Pharmasolve in aqueous solution
[16] = 10% Poloxamer F68 in aqueous solution
[17] = 20% HP-β-CD in aqueous solution
[18] = 20% Labrasol in aqueous solution
[19] = 30% HP-β-CD in aqueous solution
[20] = 35% Labrasol in aqueous solution
[21] = 40% Captisol in aqueous solution
[22] = 40% HP-β-CD in aqueous solution
[23] = 50% Labrasol in aqueous solution

In the case of `CCS(=O)(=O)N1CCN(c2ccc(Nc3ncc(C(N)=O)c(NC4CC4)n3)cc2)CC1` [Compound I HCl Form I, 4-(cyclopropylamino)-2-(4-(4-(ethylsulfonyl)piperazin-1-yl)phenylamino)pyrimidine-5-carboxamide], the “Form under N2 by in situ XRPD” value ([1]; N2 bleeding for 20 min, 10.2% RH) is reported as “A new form was observed”, the “Form after re-exposure to ambient conditions” value ([1]; after N2 bleeding) is reported as “converted back to HCl salt Form I quickly” and the “Form change / HPLC purity on storage under vacuum” value ([2]; 40° C.) is reported as “No form change or decrease in purity by HPLC”. The “Form change / HPLC purity on storage under vacuum” value ([2]; 60° C.) was “No form change or decrease in purity by HPLC”, the “Form change on solubility analysis (XRPD post vs pre)” value [3] was “no form change” and the “GVS weight gain / total weight uptake” value [4] was “about 5.9%”. For the same compound, the “GVS weight gain / total weight uptake” value ([4]; listed as Comp. I HCl (aq., 1:2) Form I) was “About 5.9%”, the “Crystalline form by XRPD post GVS analysis” value ([4]; exposure to humidity 0 to about 90% RH, about 25° C.) was “does not result in a form change” and the GVS mass lost ([4]; kept under about 100% dry atmosphere) was “about 0.5%”. For the same compound, the GVS weight variation ([4]; up to about 70% RH) was “does not vary significantly”, the “Form after slurry maturation (XRPD)” value [5] was “does not experience any form change” and the “pH range in which Compound I HCl Form I converted to Compound I free base” value [6] was greater than 3.0. It also gave a solubility kinetic at 2 h [7, 8] of 2.04 mg/mL, a solubility kinetic at 24 h [7, 8] of 2.51 mg/mL and a solubility kinetic at 7 days [7, 8] of 2.54 mg/mL. For the same compound, the solubility kinetic at 2 h ([7]; 3% HP-β-CD in aqueous solution) was 0.99 mg/mL, the solubility kinetic at 24 h ([7]; 3% HP-β-CD in aqueous solution) was 1.12 mg/mL and the solubility kinetic at 7 days ([7]; 3% HP-β-CD in aqueous solution) was 1.02 mg/mL. The solubility kinetic at 2 h ([7]; 3% TPGS in aqueous solution) was 1.06 mg/mL, the solubility kinetic at 24 h ([7]; 3% TPGS in aqueous solution) was 0.64 mg/mL and the solubility kinetic at 7 days ([7]; 3% TPGS in aqueous solution) was 0.54 mg/mL. It also gave a solubility kinetic at 2 h [7, 9] of 3.01 mg/mL, a solubility kinetic at 24 h [7, 9] of 3.61 mg/mL and a solubility kinetic at 7 days [7, 9] of 3.75 mg/mL. It also gave a solubility kinetic at 2 h ([7]; 5% HP-β-CD in aqueous solution) of 1.45 mg/mL, a solubility kinetic at 24 h ([7]; 5% HP-β-CD in aqueous solution) of 1.39 mg/mL and a solubility kinetic at 7 days ([7]; 5% HP-β-CD in aqueous solution) of 1.59 mg/mL. For the same compound, the solubility kinetic at 2 h [7, 10] was 0.43 mg/mL, the solubility kinetic at 24 h [7, 10] was 0.69 mg/mL and the solubility kinetic at 2 h [7, 11] was 0.23 mg/mL. The solubility kinetic at 24 h [7, 11] was 0.18 mg/mL, the solubility kinetic at 2 h ([7]; 5% TPGS in aqueous solution) was 1.61 mg/mL and the solubility kinetic at 24 h ([7]; 5% TPGS in aqueous solution) was 1.53 mg/mL. It also gave a solubility kinetic at 7 days ([7]; 5% TPGS in aqueous solution) of 1.32 mg/mL, a solubility kinetic at 2 h [7, 12] of 3.04 mg/mL and a solubility kinetic at 24 h [7, 12] of 3.41 mg/mL. It also gave a solubility kinetic at 7 days [7, 12] of 3.67 mg/mL, a solubility kinetic at 2 h [7, 13] of 1.88 mg/mL and a solubility kinetic at 24 h [7, 13] of 2.03 mg/mL. It also gave a solubility kinetic at 7 days [7, 13] of 1.93 mg/mL, a solubility kinetic at 2 h [7, 14] of 1.15 mg/mL and a solubility kinetic at 24 h [7, 14] of 0.82 mg/mL. The solubility kinetic at 7 days [7, 14] was 0.7 mg/mL, the solubility kinetic at 2 h [7, 15] was 0.7 mg/mL and the solubility kinetic at 24 h [7, 15] was 0.57 mg/mL. For the same compound, the solubility kinetic at 2 h [7, 16] was 0.26 mg/mL, the solubility kinetic at 24 h [7, 16] was 0.21 mg/mL and the solubility kinetic at 2 h ([7]; 10% TPGS in aqueous solution) was 1.8 mg/mL. It also gave a solubility kinetic at 24 h ([7]; 10% TPGS in aqueous solution) of 1.93 mg/mL, a solubility kinetic at 7 days ([7]; 10% TPGS in aqueous solution) of 1.72 mg/mL and a solubility kinetic at 2 h [7, 17] of 2.63 mg/mL. For the same compound, the solubility kinetic at 24 h [7, 17] was 2.81 mg/mL, the solubility kinetic at 7 days [7, 17] was 2.65 mg/mL and the solubility kinetic at 2 h [7, 18] was 1.84 mg/mL. It also gave a solubility kinetic at 24 h [7, 18] of 1.85 mg/mL, a solubility kinetic at 7 days [7, 18] of 1.71 mg/mL and a solubility kinetic at 2 h ([7]; 20% PEG in aqueous solution) of 0.27 mg/mL. For the same compound, the solubility kinetic at 24 h ([7]; 20% PEG in aqueous solution) was 0.37 mg/mL, the solubility kinetic at 2 h ([7]; 20% TPGS in aqueous solution) was 2.45 mg/mL and the solubility kinetic at 24 h ([7]; 20% TPGS in aqueous solution) was 2.42 mg/mL. It also gave a solubility kinetic at 7 days ([7]; 20% TPGS in aqueous solution) of 2.62 mg/mL, a solubility kinetic at 2 h [7, 19] of 2.98 mg/mL and a solubility kinetic at 24 h [7, 19] of 2.94 mg/mL. The solubility kinetic at 2 h ([7]; 30% PEG in aqueous solution) was 0.42 mg/mL, the solubility kinetic at 24 h ([7]; 30% PEG in aqueous solution) was 0.45 mg/mL and the solubility kinetic at 7 days ([7]; 30% PEG in aqueous solution) was 0.41 mg/mL. The solubility kinetic at 2 h [7, 20] was 1.9 mg/mL, the solubility kinetic at 24 h [7, 20] was 2.01 mg/mL and the solubility kinetic at 7 days [7, 20] was 1.8 mg/mL. It also gave a solubility kinetic at 2 h [7, 21] of 4.25 mg/mL, a solubility kinetic at 24 h [7, 21] of 4.4 mg/mL and a solubility kinetic at 7 days [7, 21] of 4.33 mg/mL. For the same compound, the solubility kinetic at 2 h [7, 22] was 3.86 mg/mL, the solubility kinetic at 24 h [7, 22] was 3.84 mg/mL and the solubility kinetic at 7 days [7, 22] was 4.12 mg/mL. For the same compound, the solubility kinetic at 2 h [7, 23] was 2.05 mg/mL, the solubility kinetic at 24 h [7, 23] was 2.65 mg/mL and the solubility kinetic at 7 days [7, 23] was 2.2 mg/mL. The solubility kinetic at 2 h ([7]; 50% PEG in aqueous solution) was 2.17 mg/mL, the solubility kinetic at 24 h ([7]; 50% PEG in aqueous solution) was 0.87 mg/mL and the solubility kinetic at 7 days ([7]; 50% PEG in aqueous solution) was 0.69 mg/mL.
